From publication doi:10.1101/2022.09.09.507210v3, “The class XIV myosin of Toxoplasma gondii, TgMyoA, is druggable in an animal model of infection” (biorxiv, 2023)
Where two headings read alike, the source gives them in different places.

Key:
[1] = biological target: T1, rabbit fast skeletal muscle myosin; test: myofibril ATPase assay; format: biochemical, Oryctolagus cuniculus; settings: 75% calcium activation (pCa75); up to 40 μM tested
T1 construct: gene MYH4; native rabbit fast skeletal myofibrils, full length, with native light chains and thin filaments
Excerpt: myofibril ATPase assay on rabbit fast skeletal muscle myosin

[2] = in vitro; parameters: species or system HFF; settings: human, hepg2 cells, read-out: HepG2 cells 80 uM
Experimental: (§1) The table summarizes the activity of each of the compounds in assays measuring recombinant TgMyoA ATPase activity, parasite growth and mammalian cell toxicity; the data on which the table is based are shown in Suppl. Figures 3-5. ATPase assay data correspond to relative luminescence units × 10^−6 (mean from 3 independent replicates +/-SEM) in the presence of 20 μM compound (Suppl. Figure 3). […] Growth assay data correspond to calculated IC50 and 95% confidence interval from a 5-6 day growth assay (Suppl. Figure 4). […] Toxicity assay entries summarize the results from 72-hour CellTox™ Green toxicity and CellTiter-Glo® viability assays on both human foreskin fibroblasts and HepG2 cells. Thresholds for mild and moderate toxicity and loss of viability compared to vehicle (DMSO) controls are indicated by the colored bars on the right hand side of Suppl. […] Fluorescence was measured daily to quantify parasite growth, in the continued presence of compound, over the next 7 days. RFU = relative fluorescence units. The data shown are the mean ± SEM from two independent biological replicates, each consisting of 3 technical replicates at all time points. […] See Figure 5A for a repeat of these growth assays and IC50 calculations. […] Cell viability/growth was measured using Promega CellTiter-Glo® (top panel) and toxicity was measured using Promega CellTox™ green (bottom panel). 0.1% w/v NaN3 served as a positive control for cytotoxicity / growth inhibition. Results are plotted relative to the DMSO controls. Bars show the mean of three independent experiments ± SEM.

[3] = in vitro; parameters: species or system HepG2; settings: human, hff cells, read-out: HFF cells 80 uM
Experimental: as §1

[4] = system: T2, Toxoplasma gondii RH (tdTomato); test: microbe, parasite or virus in culture; parameters: species or system HFF (host); tdTomato parasite growth in HFF cells, daily fluorescence, IC50 at day 5-6; settings: HFF
T2 construct: RH
Experimental: 557 558 Parasite growth assays. Fluorescence-based growth assay. To quantify growth in the presence of compound(s), 1x10^4 559 tachyzoites were preincubated with compound for 5 minutes prior to inoculation onto 560 3 wells of a black sided, clear bottom 384-well plate containing a confluent monolayer of HFF cells. For 561 compound assays, parasites expressing tdTomato were incubated with vehicle or serial dilutions of 562 compound, maintaining a constant DMSO concentration (0.2% v/v). The fluorescent signal was 563 quantified daily for 7 days (ex 530/25, em 590/35) on a Biotek synergy 2 plate reader. The IC50 of growth 564 inhibitory compounds was quantified using GraphPad Prism. Plaque assay. 10, 100, 200, or 500 565 parasites were used to inoculate a confluent monolayer of HFF cells in a 12-well plate and incubated for 566 7 days at 37 °C, 5% CO2. Infected monolayers were then washed with phosphate-buffered saline, fixed 567 with 100% EtOH for five minutes, stained with 5X crystal violet solution (12.5 g crystal violet, 125 ml 568 100% EtOH, 500 ml 1% w/v ammonium oxalate) for 5 minutes, washed with PBS, and allowed to dry.  Figure 3: Preliminary structure-activity relationship (SAR) analysis. […] The table summarizes the activity of each of the compounds in assays measuring recombinant TgMyoA ATPase activity, parasite growth and mammalian cell toxicity; the data on which the table is based are shown in Suppl. Figures 3-5. ATPase assay data correspond to relative luminescence units × 10^−6 (mean from 3 independent replicates +/-SEM) in the presence of 20 μM compound (Suppl. Figure 3). […] Growth assay data correspond to calculated IC50 and 95% confidence interval from a 5-6 day growth assay (Suppl. Figure 4). […] Toxicity assay entries summarize the results from 72-hour CellTox™ Green toxicity and CellTiter-Glo® viability assays on both human foreskin fibroblasts and HepG2 cells. Thresholds for mild and moderate toxicity and loss of viability compared to vehicle (DMSO) controls are indicated by the colored bars on the right hand side of Suppl. […] Fluorescence was measured daily to quantify parasite growth, in the continued presence of compound, over the next 7 days. RFU = relative fluorescence units. The data shown are the mean ± SEM from two independent biological replicates, each consisting of 3 technical replicates at all time points. […] See Figure 5A for a repeat of these growth assays and IC50 calculations. […] Cell viability/growth was measured using Promega CellTiter-Glo® (top panel) and toxicity was measured using Promega CellTox™ green (bottom panel). 0.1% w/v NaN3 served as a positive control for cytotoxicity / growth inhibition. Results are plotted relative to the DMSO controls. Bars show the mean of three independent experiments ± SEM.

SMILES | IC50 [1] [µM] | CC50 at 72 h [2] [µM] | CC50 at 72 h [3] [µM] | IC50 ([4]; read-out: IC50 (D5)) [µM] | IC50 ([4]; read-out: Parasite Growth IC50) [µM]
COc1ccc(C2(NCc3c[nH]nc3-c3cccs3)CC2)cc1 [KNX-002, 1-(4-methoxyphenyl)-N-((3-(thiophen-2-yl)-1H-pyrazol-4-yl)methyl)cyclopropan-1-amine] | > 39.2 | > 80 | > 80 | 14.9 | 19.7
c1csc(-c2n[nH]cc2CNC2CC2)c1 [VEST1, N-((3-(thiophen-2-yl)-1H-pyrazol-4-yl)methyl)cyclopropanamine] | – | > 80 | > 80 | – | > 80
Clc1ccc(C2(NCc3c[nH]nc3-c3cccs3)CC2)cc1 [VEST2, 1-(4-chlorophenyl)-N-((3-(thiophen-2-yl)-1H-pyrazol-4-yl)methyl)cyclopropan-1-amine] | – | – | – | – | 15.5
Cc1ccc(C2(NCc3c[nH]nc3-c3cccs3)CC2)cc1 [VEST3, N-((3-(thiophen-2-yl)-1H-pyrazol-4-yl)methyl)-1-(p-tolyl)cyclopropan-1-amine] | – | – | – | – | 25.4
Clc1ccc(C2(NCc3c[nH]nc3-c3cccs3)CC2)cc1Cl [VEST4, 1-(3,4-dichlorophenyl)-N-((3-(thiophen-2-yl)-1H-pyrazol-4-yl)methyl)cyclopropan-1-amine] | – | > 80 | > 80 | – | 31
c1ccc(C2(NCc3c[nH]nc3-c3cccs3)CC2)cc1 [VEST5, 1-phenyl-N-((3-(thiophen-2-yl)-1H-pyrazol-4-yl)methyl)cyclopropan-1-amine] | – | > 80 | > 80 | – | 9.9
COc1ccc(C2(NCc3c[nH]nc3-c3ccccc3)CC2)cc1 [VEST6, 1-(4-methoxyphenyl)-N-((3-phenyl-1H-pyrazol-4-yl)methyl)cyclopropan-1-amine] | – | > 80 | > 80 | – | 24.9
COc1ccc(C2(NCc3ccccc3)CC2)cc1 [VEST7, N-benzyl-1-(4-methoxyphenyl)cyclopropan-1-amine] | – | > 80 | > 80 | – | > 80
COc1ccc(C2(NCc3cncs3)CC2)cc1 [VEST8, 1-(4-methoxyphenyl)-N-(thiazol-5-ylmethyl)cyclopropan-1-amine] | – | > 80 | > 80 | – | > 80
COc1ccc(C2(NCc3ccoc3)CC2)cc1 [VEST9, N-(furan-3-ylmethyl)-1-(4-methoxyphenyl)cyclopropan-1-amine] | – | > 80 | > 80 | – | > 80
COc1ccc(C2(NCc3cc[nH]c3)CC2)cc1 [VEST10, N-((1H-pyrrol-3-yl)methyl)-1-(4-methoxyphenyl)cyclopropan-1-amine] | – | > 80 | > 80 | – | 21.7
COc1ccc(CNCc2c[nH]nc2-c2cccs2)cc1 [VEST11, N-(4-methoxybenzyl)-1-(3-(thiophen-2-yl)-1H-pyrazol-4-yl)methanamine] | – | > 80 | > 80 | – | > 80
c1ccc(CNCc2c[nH]nc2-c2cccs2)cc1 [VEST12, N-benzyl-1-(3-(thiophen-2-yl)-1H-pyrazol-4-yl)methanamine] | – | > 80 | – | – | > 80
CC(C)(NCc1c[nH]nc1-c1cccs1)c1ccccc1 [VEST13, 2-phenyl-N-((3-(thiophen-2-yl)-1H-pyrazol-4-yl)methyl)propan-2-amine] | – | > 80 | – | – | 27.1
COc1ccc([C@@H](C)NCc2c[nH]nc2-c2cccs2)cc1 [VEST14, (R)-1-(4-methoxyphenyl)-N-((3-(thiophen-2-yl)-1H-pyrazol-4-yl)methyl)ethan-1-amine] | – | > 80 | – | – | 44.3
COc1ccc([C@H](C)NCc2c[nH]nc2-c2cccs2)cc1 [VEST15, (S)-1-(4-methoxyphenyl)-N-((3-(thiophen-2-yl)-1H-pyrazol-4-yl)methyl)ethan-1-amine] | – | > 80 | – | – | 39.7
